Where two headings read alike, the source gives them in different places.
Key:
[1] = in vitro; format: cell-based; conditions: human, HepG2 or HepG2.117 cells, ATPlite, mean value
Procedure, shortened: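 Luminescent ATP quantitation served as the viability endpoint following a 3- or 4-day incubation with test compounds.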

[2] = system: HBV (HepG2.117 cell line, inducibly HBV producing); assay: Anti-HBV activity: intracellular HBV DNA by real-time PCR in HepG2.117 cells after 3 days of treatment; format: cell-based, hepatitis B virus
Procedure, shortened: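 First, HBV replication is induced in HepG2.117 cells by doxycycline absence. Next, serially diluted compound is added for 3 days. Finally, intracellular HBV DNA is quantified by HBV-specific real-time PCR.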

[3] = 3-days incubation (unmarked values)
[4] = Hepatitis B virus, HepG2.117, 72 h, HepG2.117 cells, 3 days of treatment, intracellular HBV DNA by real-time PCR; mean value; read-out: EC50 (μM, mean value)
[5] = 3-days incubation (not marked with *)
[6] = Hepatitis B virus, HepG2.117, 72 h, HepG2.117 cells, intracellular HBV DNA by real-time PCR, 3 days of treatment, mean value; read-out: EC50 (μM, mean value)

Row | Structure (SMILES) | CC50 at 3 days [1, 3] [µM] | EC50 [2, 4] [µM] | CC50 at 3 days [1, 5] [µM] | EC50 [2, 6] [µM]
1 | CNC(=O)c1cc(-n2c(NC(C)C)nc3c(c2=O)C[C@@H](C)N(C(=O)c2ccc(Cl)c(Cl)c2)C3)nn1C [Compound C292, 3-[(6R)-7-(3,4-dichlorobenzoyl)-6-methyl-4-oxo-2-[(propan-2-yl)amino]-5,6,7,8-tetrahydropyrido[3,4-d]pyrimidin-3(4H)-yl]-N,1-dimethyl-1H-pyrazole-5-carboxamide] | > 50 | 0.04 |  | 
2 | CNC(=O)c1ccc(-n2c(NC(C)(C)C)nc3c(c2=O)C[C@@H](C)N(C(=O)c2ccc(Cl)c(C(F)(F)F)c2)C3)c(Cl)c1 (single isomer, unassigned) [Compound C677b] |  |  | 24 | 0.02
3 | CNc1noc2cc(-n3c(NC(C)C)nc4c(c3=O)C[C@@H](C)N(C(=O)c3ccc(Cl)c(Cl)c3)C4)ccc12 [Compound C305, (6R)-7-(3,4-dichlorobenzoyl)-6-methyl-3-[3-(methylamino)-1,2-benzoxazol-6-yl]-2-[(propan-2-yl)amino]-5,6,7,8-tetrahydropyrido[3,4-d]pyrimidin-4(3H)-one] | > 50 | 0.07 |  | 
4 | COc1ccccc1-n1c(NC(C)C2CC2)nc2c(c1=O)CCN(C(=O)c1ccc(Cl)c(Cl)c1)C2 (centres unmarked) [Compound C47, 2-[(1-cyclopropylethyl)amino]-7-(3,4-dichlorobenzoyl)-3-(2-methoxyphenyl)-5,6,7,8-tetrahydropyrido[3,4-d]pyrimidin-4(3H)-one] | 27.3 | 2.68 |  | 
5 | CNC(=O)c1ccc(-n2c(NC(C)(C)C)nc3c(c2=O)C[C@@H](C)N(C(=O)c2ccc(Cl)c(Cl)c2)C3)cc1 [Compound C269, 4-[(6R)-2-(tert-butylamino)-7-(3,4-dichlorobenzoyl)-6-methyl-4-oxo-5,6,7,8-tetrahydropyrido[3,4-d]pyrimidin-3(4H)-yl]-N-methylbenzamide] | > 50 | 0.05 |  | 
6 | CC(C)Nc1nc2c(c(=O)n1-c1ccnc(Cl)c1)C[C@@H](C)N(C(=O)c1ccc(Cl)c(Cl)c1)C2 [Compound C656] |  |  | > 50 | 0.26
7 | COc1ccc(CNc2nc3c(c(=O)[nH]2)CCN(C(=O)c2cc4ccc(Cl)cc4[nH]2)C3)cc1 [Compound C79, 7-(6-chloro-1H-indole-2-carbonyl)-2-{[(4-methoxyphenyl)methyl]amino}-5,6,7,8-tetrahydropyrido[3,4-d]pyrimidin-4(3H)-one] | 37.5 | 2.32 |  | 
8 | COC(=O)c1ccn(-c2ccc(-n3c(NC(C)C)nc4c(c3=O)C[C@@H](C)N(C(=O)c3ccc(Cl)c(Cl)c3)C4)cc2)n1 [Compound C267, methyl 1-{4-[(6R)-7-(3,4-dichlorobenzoyl)-6-methyl-4-oxo-2-[(propan-2-yl)amino]-5,6,7,8-tetrahydropyrido[3,4-d]pyrimidin-3(4H)-yl]phenyl}-1H-pyrazole-3-carboxylate] | > 50 | 0.21 |  | 
9 | CNC(=O)c1ccc([C@@H](C)Nc2nc3c(c(=O)n2-c2ccc(C(=O)NC)cc2)C[C@@H](C)N(C(=O)c2ccc(Cl)c(Cl)c2)C3)cc1 (single isomer, unassigned) [Compound C530a] |  |  | > 50 | > 7.4
10 | CC(C)Nc1nc2c(c(=O)n1-c1ccc(C(=O)NCC(C)(C)C(=O)O)cc1)C[C@@H](C)N(C(=O)c1ccc(Cl)c(Cl)c1)C2 [Compound C214, 3-{4-[(6R)-7-(3,4-dichlorobenzoyl)-6-methyl-4-oxo-2-[(propan-2-yl)amino]-5,6,7,8-tetrahydropyrido[3,4-d]pyrimidin-3(4H)-yl]benzamido}-2,2-dimethylpropanoic acid] | > 50 | 14.6 |  | 
11 | CNC(=O)c1ccc(-n2c(N[C@H](C)C(C)(C)C)nc3c(c2=O)C[C@@H](C)N(C(=O)c2ccc(Cl)c(Cl)c2)C3)cc1 (single isomer, unassigned) [Compound C459a] |  |  | 31.9 | 0.44
12 | CC(C)Nc1nc2c(c(=O)n1-c1cccc(-c3cn[nH]n3)c1)C[C@@H](C)N(C(=O)c1ccc(Cl)c(Cl)c1)C2 [Compound C448] |  |  | 27.9 | 0.12
13 | CC(C)Nc1nc2c(c(=O)n1-c1ccnnc1)CCN(C(=O)c1ccc(Cl)c(Cl)c1)C2 [Compound C134, 7-(3,4-dichlorobenzoyl)-2-[(propan-2-yl)amino]-3-(pyridazin-4-yl)-5,6,7,8-tetrahydropyrido[3,4-d]pyrimidin-4(3H)-one] | > 50 | 4.39 |  | 
14 | CNC(=O)c1ccc(-n2c(N[C@H](C)c3ccc(C(F)(F)F)cc3)nc3c(c2=O)C[C@@H](C)N(C(=O)c2ccc(Cl)c(Cl)c2)C3)cc1 (single isomer, unassigned) [Compound C413a] |  |  | 9 | 0.06
15 | CNC(=O)c1ccc(-n2c(NC(C)Cn3cncn3)nc3c(c2=O)C[C@@H](C)N(C(=O)c2ccc(Cl)c(Cl)c2)C3)cc1 (some centres unmarked) [Compound C540] |  |  | > 50 | 15.8
16 | CNC(=O)c1ccc(-n2c(NC(C)C(C)(C)C)nc3c(c2=O)C[C@@H](C)N(C(=O)c2ccc(Cl)c(Cl)c2)C3)cc1 (some centres unmarked) [Compound C459] |  |  | 28.6 | 0.24
17 | CNC(=O)c1ccc(-n2c(NC(C)C)nc3c(c2=O)C[C@@H](C)N(C(=O)c2cc4cc(Br)ccc4s2)C3)cc1 [Compound C583] |  |  | > 50 | 0.21
18 | COc1ccc(CNc2nc3c(c(=O)n2-c2cccc(OC)c2)CCN(C(=O)c2ccc(Cl)c(Cl)c2)C3)cc1 [Compound C8, 7-(3,4-dichlorobenzoyl)-3-(3-methoxyphenyl)-2-{[(4-methoxyphenyl)methyl]amino}-5,6,7,8-tetrahydropyrido[3,4-d]pyrimidin-4(3H)-one] | > 50 | 1 |  | 
19 | CNC(=O)c1ccc(-n2c(NC(C)C)nc3c(c2=O)C[C@@H](C)N(C(=O)c2ccc(C(F)F)c(F)c2)C3)cc1 [Compound C500] |  |  | > 50 | 0.59
20 | CNC(=O)c1cc(-n2c(NC(C)C)nc3c(c2=O)C[C@@H](C)N(C(=O)c2ccc(Cl)c(C(F)(F)F)c2)C3)nn1C [Compound C668] |  |  | > 50 | 0.01
21 | COc1ccccc1-n1c(NC2CCCC2)nc2c(c1=O)CCN(C(=O)c1ccc(Cl)c(Cl)c1)C2 [Compound C45, 2-(cyclopentylamino)-7-(3,4-dichlorobenzoyl)-3-(2-methoxyphenyl)-5,6,7,8-tetrahydropyrido[3,4-d]pyrimidin-4(3H)-one] | 27.2 | 6.62 |  | 
22 | COc1ccc(CNc2nc3c(c(=O)n2-c2ccc(S(C)(=O)=O)nc2)CCN(C(=O)c2ccc(Cl)c(Cl)c2)C3)cc1 [Compound C102, 7-(3,4-dichlorobenzoyl)-3-[6-(methanesulfonyl)pyridin-3-yl]-2-{[(4-methoxyphenyl)methyl]amino}-5,6,7,8-tetrahydropyrido[3,4-d]pyrimidin-4(3H)-one] | > 50 | 0.39 |  | 
23 | CC(C)Nc1nc2c(c(=O)n1-c1ccc(S(C)(=O)=O)cc1)CCN(C(=O)c1ccn3ncnc3c1)C2 [Compound C365] | > 50 | > 10 |  | 
24 | CNC(=O)c1ccc(-n2c(NC(C)C)nc3c(c2=O)C[C@@H](C)N(C(=O)c2cc(C)c(F)c(C)c2)C3)cc1 [Compound C501] |  |  | > 50 | 0.36
25 | CNC(=O)c1cc(Cl)c(-n2c(NC(C)C)nc3c(c2=O)C[C@@H](C)N(C(=O)c2ccc(Cl)c(Cl)c2)C3)c(Cl)c1 [Compound C376] | > 50 | 0.09 |  | 
